pIC50: −log10 of the molar value.
Tests used:
[1] = biological target: T1, GST-ALK5 (TGF-beta receptor kinase) (Homo sapiens, UniProt P36897); assay: In-vitro (enzyme) kinase flashplate assay: GST-ALK5 phosphorylation of GST-SMAD2 with 33P-ATP; format: biochemical; conditions: 384-well flashplate kinase assay, GST-ALK5 / GST-SMAD2, 33P-ATP, 30° C., 45 min; read-out: TβR activity (Example 50)
T1 sequence (P36897 34-503): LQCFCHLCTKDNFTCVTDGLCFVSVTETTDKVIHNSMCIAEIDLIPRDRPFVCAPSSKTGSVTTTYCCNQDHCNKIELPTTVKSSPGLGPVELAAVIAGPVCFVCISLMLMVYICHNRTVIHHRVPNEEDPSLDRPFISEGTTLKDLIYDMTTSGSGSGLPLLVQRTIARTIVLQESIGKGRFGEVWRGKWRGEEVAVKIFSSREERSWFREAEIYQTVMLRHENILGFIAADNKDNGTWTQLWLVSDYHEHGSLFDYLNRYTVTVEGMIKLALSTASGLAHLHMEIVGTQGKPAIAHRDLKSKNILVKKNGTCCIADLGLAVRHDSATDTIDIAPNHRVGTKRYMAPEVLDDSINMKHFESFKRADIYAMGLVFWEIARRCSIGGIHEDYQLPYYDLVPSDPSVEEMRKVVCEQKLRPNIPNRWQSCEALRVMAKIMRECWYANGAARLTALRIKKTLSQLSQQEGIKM
Method: In-vitro (Enzyme) Assay for Determination of the Efficacy of Inhibitors of the Inhibition of TGF-Beta-Mediated Effects
The kinase assay was carried out as 384-well flashplate assay. 31.2 nM of GST-ALK5, 439 nM of GST-SMAD2 and 3 mM of ATP (with 0.3 μCi of ^33P-ATP/well) were incubated in a total volume of 35 μl (20 mM of HEPES, 10 mM of MgCl2, 5 mM of MnCl2, 1 mM of DTT, 0.1% of BSA, pH 7.4) without or with test substance (5-10 concentrations) at 30° C. for 45 min. The reaction was stopped using 25 μl of 200 mM EDTA solution, filtered with suction at room temperature after 30 min, and the wells were washed with 3 times 100 μl of 0.9% NaCl solution. Radioactivity was measured in the TopCount. The IC50 values were calculated using RS1.

[2] = test system: TGF-beta-induced phosphorylation of Smad2 (Ser465/467) and Smad3 (Ser423/425) in Mv1-Lu cells; assay: Inhibition of Smad2/3 phosphorylation in Mv1Lu cells (PathScan Phospho-Smad2 ELISA); format: cell-based, mink Mustela vison; conditions: Neogale vison, Mv1-Lu cells, TGF-beta 1 5 ng/ml, Phospho-Smad2/3 ELISA, read-out: TβR activity (Example 51)
Method: Inhibition of Smad2/3 Phosphorylation in Mv1 Lu Cells by TGF-Beta Receptor I Kinase Inhibitors
This assay was used to determine the inhibitory potency of compounds on TGF-beta-induced phosphorylation of Smad2 (Ser465/467) and Smad3 (Ser423/425). Mv1-Lu cells (lung epithelial cell line from mink Mustela vison; ATCC number: CCL-64) were seeded in DMEM (Invitrogen) supplemented with 10% fetal bovine serum (Pan Biotech) at a defined cell density in 24-well or 96-well plates (24-well plate: 1.5×10^5 cells per well; 96-well plate: 4×10^4 cells per well). Cell cultures were incubated in DMEM at 37° C. and 10% CO2. On the next day, the medium was replaced and cells were serum-starved for 16-20 hours. The following day, serial dilutions of compounds were added to the wells, pre-incubated for 1.5 hrs before recombinant TGF-beta 1 ligand (final concentration 5 ng/ml; R&D systems) was added. After one hour of ligand stimulation, lysates were prepared and analyzed using an enzyme-linked immunosorbent assay kit (PathScan Phospho-Smad2 Kit, Cell Signaling Technologies). The ELISA detects phosphorylated Smad2 as well as phosphorylated Smad3 with the phospho-specific antibody. TGF-beta stimulated cells and unstimulated cells served as positive and negative controls (100% and background control). The concentration of the vehicle DMSO was kept constant at 0.2% (v/v) in all wells. Dose-response relationships were fitted using curve fitting algorithms of the RS1 statistics software package (Brooks Automation Inc. RS/1- Statistical Tools Handbook. Release 6.2) to determine the concentration at which half-maximal inhibition (IC50) of Smad2/3 phosphorylation was achieved.

Structure (SMILES)	pIC50 [1]	pIC50 [2]
Nc1nccc2c(-c3cc(-c4c(F)cccc4F)nc4ncccc34)nccc12 [Compound 109, 5-[2-(2,6-Difluoro-phenyl)-[1,8]naphthyridin-4-yl]-[2,6]naphthyridin-1-ylamine]	> 6.00	< 5.00
O=c1c2cnccc2c(-c2cc(-c3ccccc3F)nc3ncccc23)cn1CCO [Compound 67, 4-[2-(2-Fluoro-phenyl)-[1,8]naphthyridin-4-yl]-2-(2-hydroxy-ethyl)-2H-[2,7]naphthyridin-1-one]	> 6.00	5.00 to 6.00
COc1nccc2c(-c3cc(-c4ccccc4F)nc4ncccc34)nccc12 [Compound 40, 2-(2-Fluoro-phenyl)-4-(5-methoxy-[2,6]naphthyridin-1-yl)-[1,8]naphthyridine]	< 5.00	< 5.00
[O-][n+]1ccc2c(-c3cc(-c4ccccc4F)nc4ncccc34)nccc2c1 [Compound 88, 2-(2-Fluoro-phenyl)-4-(6-oxy-[2,6]naphthyridin-1-yl)-[1,8]naphthyridine]	< 5.00	< 5.00
CC(=O)Nc1ccc2cnccc2c1-c1cc(-c2ccccc2F)nc2ncccc12 [Compound 85, N-{5-[2-(2-Fluoro-phenyl)-[1,8]naphthyridin-4-yl]-isoquinolin-6-yl}-acetamide]	5.00 to 6.00	< 5.00
Nc1ccc2c(-c3nccc4c(N)nccc34)cc(-c3ccccc3F)nc2n1 [Compound 114, 5-(5-Amino-[2,6]naphthyridin-1-yl)-7-(2-fluoro-phenyl)-[1,8]naphthyridin-2-ylamine]	> 6.00	> 6.00
COCC(=O)Nc1nccc2c(-c3cc(-c4ccccc4F)nc4ncccc34)nccc12 [Compound 73, N-{5-[2-(2-Fluoro-phenyl)-[1,8]naphthyridin-4-yl]-[2,6]naphthyridin-1-yl}-2-methoxy-acetamide]	5.00 to 6.00	5.00 to 6.00
Nc1nccc2c(-c3cc(-c4cc(Cl)ccc4F)nc4ncccc34)cccc12 [Compound 4, 5-[2-(5-Chloro-2-fluoro-phenyl)-[1,8]naphthyridin-4-yl]-isoquinolin-1-ylamine]	> 6.00	> 6.00
CCN(CC)CCOc1ccc(-c2cc(-c3cc(Cl)ccc3F)nc3ncccc23)c2ccncc12 [Compound 86, (2-{5-[2-(5-Chloro-2-fluoro-phenyl)-[1,8]naphthyridin-4-yl]-isoquinolin-8-yloxy}-ethyl)-diethyl-amine]	> 6.00	> 6.00
O=c1c2cnccc2c(-c2cc(-c3cc(F)ccc3F)nc3ncccc23)cn1CCO [Compound 72, 4-[2-(2,5-Difluoro-phenyl)-[1,8]naphthyridin-4-yl]-2-(2-hydroxy-ethyl)-2H-[2,7]naphthyridin-1-one]	> 6.00	> 6.00
Nc1nccc2c(-c3cc(-c4ccccc4F)nc4ncccc34)nccc12 [Compound 14, 5-[2-(2-Fluoro-phenyl)-[1,8]naphthyridin-4-yl]-[2,6]naphthyridin-1-ylamine]	> 6.00	> 6.00
CN(C)CCOc1ccc(-c2cc(-c3cc(Cl)ccc3F)nc3ncccc23)c2ccncc12 [Compound 82, (2-{5-[2-(5-Chloro-2-fluoro-phenyl)-[1,8]naphthyridin-4-yl]-isoquinolin-8-yloxy}-ethyl)-dimethyl-amine]	> 6.00	> 6.00
O=[N+]([O-])c1ccc(-c2cc(-c3ccccc3F)nc3ncccc23)c2ccncc12 [Compound 16, 2-(2-Fluoro-phenyl)-4-(8-nitro-isoquinolin-5-yl)-[1,8]naphthyridine]	–	> 6.00
Nc1ncnc2c(-c3cc(-c4ccccc4F)nc4ncccc34)nccc12 [Compound 36, 8-[2-(2-Fluoro-phenyl)-[1,8]naphthyridin-4-yl]-pyrido[3,4-d]pyrimidin-4-ylamine]	–	< 5.00
CC(=O)Nc1nccc2c(-c3cc(-c4ccccc4F)nc4ncccc34)nccc12 [Compound 69, N-{5-[2-(2-Fluoro-phenyl)-[1,8]naphthyridin-4-yl]-[2,6]naphthyridin-1-yl}-acetamide]	> 6.00	–
Nc1ncnc2c(-c3cc(-c4ccccc4F)nc4ncccc34)cccc12 [Compound 15, 8-[2-(2-Fluoro-phenyl)-[1,8]naphthyridin-4-yl]-quinazolin-4-ylamine]	–	5.00 to 6.00
Nc1cc2c(-c3cc(-c4cc(Cl)ccc4F)nc4ncccc34)cccc2cn1 [Compound 49, 5-[2-(5-Chloro-2-fluoro-phenyl)-[1,8]naphthyridin-4-yl]-isoquinolin-3-ylamine]	–	< 5.00
Nc1ccc(-c2cc(-c3ccccc3F)nc3ncccc23)c2ccncc12 [Compound 41, 5-[2-(2-Fluoro-phenyl)-[1,8]naphthyridin-4-yl]-isoquinolin-8-ylamine]	–	> 6.00

Now from value to compound:

pIC50 [1]	pIC50 [2]	Structure (SMILES)
> 6.00	> 6.00	Nc1nccc2c(-c3cc(-c4ccccc4F)nc4ncccc34)ccc(OCCO)c12 [Compound 79, 2-{1-Amino-5-[2-(2-fluoro-phenyl)-[1,8]naphthyridin-4-yl]-isoquinolin-8-yloxy}-ethanol]
–	> 6.00	OCCOc1ccc(-c2cc(-c3ccccc3F)nc3ncccc23)c2ccncc12 [Compound 39, 2-{5-[2-(2-Fluoro-phenyl)-[1,8]naphthyridin-4-yl]-isoquinolin-8-yloxy}-ethanol]
> 6.00	> 6.00	Nc1nccc2c(-c3cc(-c4ccccc4F)nc4ncccc34)cccc12 [Compound 9, 5-[2-(2-Fluoro-phenyl)-[1,8]naphthyridin-4-yl]-isoquinolin-1-ylamine]
–	> 6.00	COCCn1cc(-c2cc(-c3cc(Cl)ccc3F)nc3ncccc23)c2ccncc21 [Compound 5, 2-(5-Chloro-2-fluoro-phenyl)-4-[1-(2-methoxy-ethyl)-1H-pyrrolo[2,3-c]pyridin-3-yl]-[1,8]naphthyridine]
> 6.00	> 6.00	O=c1c2cnccc2c(-c2cc(-c3cc(Cl)ccc3F)nc3ncccc23)cn1CC(O)CO (stereo not drawn) [Compound 81, 4-[2-(5-Chloro-2-fluoro-phenyl)-[1,8]naphthyridin-4-yl]-2-(2,3-dihydroxy-propyl)-2H-[2,7]naphthyridin-1-one]
> 6.00	> 6.00	Fc1ccccc1-c1cc(-c2cccc3cnccc23)c2cccnc2n1 [Compound 19, 2-(2-Fluoro-phenyl)-4-isoquinolin-5-yl-[1,8]naphthyridine]
> 6.00	> 6.00	c1coc(-c2cc(-c3c[nH]c4cnccc34)c3cccnc3n2)c1 [Compound 101, 2-Furan-2-yl-4-(1H-pyrrolo[2,3-c]pyridin-3-yl)-[1,8]naphthyridine]
> 6.00	> 6.00	Cc1ccc(-c2cc(-c3nccc4c(N)nccc34)c3cccnc3n2)o1 [Compound 84, 5-[2-(5-Methyl-furan-2-yl)-[1,8]naphthyridin-4-yl]-[2,6]naphthyridin-1-ylamine]
> 6.00	> 6.00	COc1ccc2cnccc2c1-c1cc(-c2ccccc2F)nc2ncccc12 [Compound 70, 2-(2-Fluoro-phenyl)-4-(6-methoxy-isoquinolin-5-yl)-[1,8]naphthyridine]
> 6.00	> 6.00	Nc1nccc2c(-c3cc(-c4cc(C(F)(F)F)ccc4F)nc4ncccc34)cccc12 [Compound 8, 5-[2-(2-Fluoro-5-trifluoromethyl-phenyl)-[1,8]naphthyridin-4-yl]-isoquinolin-1-ylamine]

Reference: patent US8791113B2, “2,4-diaryl-substituted [1,8] naphthyridines as kinase inhibitors for use against cancer” (Merck Patent GmbH, priority 2010, dated 2014)
